Measurements reported in patent publication US20250186433A1, “ACSS2 INHIBITORS AND METHODS OF USE THEREOF” (EpiVario, Inc., priority 2017, published 2025).
Like-named read-outs stand apart in the source and are kept apart here.

Experiments:
ACSS2 [1] = target: T1, ACSS2 (Homo sapiens, UniProt Q9NR19); experiment: Binding to recombinant ACSS2 protein by Label Free MST; details: for Kd: read-out: Kd [uM] Fluorescence
Text: Binding of ACSS2 inhibitor to recombinant ACSS2 protein by Label Free MST. MicroScale Thermophoresis (MST) is an optical fluorescent method that records the changes in fluorescence of a target molecule as a function of temperature and the concentration of the cognate ligand molecule. The binding of small-molecules to the target proteins lead to changes in the fluorescence that can be measured and translated into binding Kd.

AACS = target: T2, AACS (Homo sapiens, UniProt Q86V21); experiment: Acyl-CoA synthetases selectivity panel: AACS; type: biochemical; details: human recombinant protein, substrate acetoacetyl, AMP readout by HPLC; read-out: HPLC based activity assays IC50 (UM) AACS
T2 construct: purchased Cusabio, China
T2 sequence (Q86V21 1-672): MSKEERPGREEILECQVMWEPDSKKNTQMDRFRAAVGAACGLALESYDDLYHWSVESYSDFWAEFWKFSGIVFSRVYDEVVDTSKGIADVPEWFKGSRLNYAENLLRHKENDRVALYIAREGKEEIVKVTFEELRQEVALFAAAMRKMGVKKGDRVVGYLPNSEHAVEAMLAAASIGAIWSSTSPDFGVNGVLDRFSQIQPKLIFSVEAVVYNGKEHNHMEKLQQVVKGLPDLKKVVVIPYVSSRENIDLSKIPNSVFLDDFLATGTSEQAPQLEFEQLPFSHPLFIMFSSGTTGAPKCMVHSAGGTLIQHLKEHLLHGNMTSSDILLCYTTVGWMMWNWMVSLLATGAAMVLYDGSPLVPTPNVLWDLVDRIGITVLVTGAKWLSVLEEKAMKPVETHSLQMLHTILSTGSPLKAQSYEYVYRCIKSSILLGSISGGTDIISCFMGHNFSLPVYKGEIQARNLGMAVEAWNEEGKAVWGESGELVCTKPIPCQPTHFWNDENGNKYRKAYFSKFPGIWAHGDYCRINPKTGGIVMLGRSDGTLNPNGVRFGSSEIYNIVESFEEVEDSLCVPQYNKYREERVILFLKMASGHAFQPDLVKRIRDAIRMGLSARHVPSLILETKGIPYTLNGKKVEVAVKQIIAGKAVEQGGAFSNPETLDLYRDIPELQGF

ACSS2 [2] = target: T1, ACSS2; experiment: Acyl-CoA synthetases selectivity panel: ACSS2; type: biochemical; parameters: purchased Cusabio, China; details: human recombinant protein, substrate acetate, AMP readout by HPLC; read-out: HPLC based activity assays IC50 (UM) ACSS2
ACSL5 = target: T3, ACSL5 (Homo sapiens, UniProt Q9ULC5); experiment: Acyl-CoA synthetases selectivity panel: ACSL5; type: biochemical; details: human recombinant protein, substrate palmitate, AMP readout by HPLC; read-out: HPLC based activity assays IC50 (UM) ACSL5
T3 construct: purchased Cusabio, China
T3 sequence (Q9ULC5 1-683): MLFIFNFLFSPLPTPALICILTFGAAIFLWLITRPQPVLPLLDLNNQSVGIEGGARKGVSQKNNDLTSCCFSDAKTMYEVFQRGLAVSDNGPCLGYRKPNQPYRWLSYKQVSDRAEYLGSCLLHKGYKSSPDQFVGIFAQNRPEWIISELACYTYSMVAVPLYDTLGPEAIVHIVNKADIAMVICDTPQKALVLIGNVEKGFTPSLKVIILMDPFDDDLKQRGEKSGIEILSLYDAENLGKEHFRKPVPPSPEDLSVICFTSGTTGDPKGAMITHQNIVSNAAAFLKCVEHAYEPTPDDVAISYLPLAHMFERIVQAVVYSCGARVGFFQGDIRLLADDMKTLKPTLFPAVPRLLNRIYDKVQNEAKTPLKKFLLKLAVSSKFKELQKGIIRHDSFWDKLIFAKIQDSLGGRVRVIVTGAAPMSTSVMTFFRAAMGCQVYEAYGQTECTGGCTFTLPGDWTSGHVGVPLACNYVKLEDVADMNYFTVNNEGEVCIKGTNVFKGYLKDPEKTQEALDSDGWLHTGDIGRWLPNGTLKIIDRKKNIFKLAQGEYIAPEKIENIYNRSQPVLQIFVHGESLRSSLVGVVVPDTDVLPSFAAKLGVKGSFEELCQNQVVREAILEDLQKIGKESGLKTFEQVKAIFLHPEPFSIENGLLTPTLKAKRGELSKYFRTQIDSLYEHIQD

ACSS2 [3] = target: T1, ACSS2; experiment: Thermal stabilization of recombinant ACSS2 protein (Nano-DSF); type: binding
Text: Thermal stabilization of recombinant ACSS2 protein by ACSS2 inhibitors. Interaction between the compound and recombinant ACSS2 protein was done by non-labeled Nano-DSF technic using the parameters described below. NanoDSF is a modified differential scanning fluorimetry method to determine protein stability that uses tryptophan or tyrosine fluorescence to monitor protein unfolding. The binding of compound to the protein leads to thermal stabilization that is quantified as the delta in the thermal melting points.

T1 sequence (Q9NR19 whole entry): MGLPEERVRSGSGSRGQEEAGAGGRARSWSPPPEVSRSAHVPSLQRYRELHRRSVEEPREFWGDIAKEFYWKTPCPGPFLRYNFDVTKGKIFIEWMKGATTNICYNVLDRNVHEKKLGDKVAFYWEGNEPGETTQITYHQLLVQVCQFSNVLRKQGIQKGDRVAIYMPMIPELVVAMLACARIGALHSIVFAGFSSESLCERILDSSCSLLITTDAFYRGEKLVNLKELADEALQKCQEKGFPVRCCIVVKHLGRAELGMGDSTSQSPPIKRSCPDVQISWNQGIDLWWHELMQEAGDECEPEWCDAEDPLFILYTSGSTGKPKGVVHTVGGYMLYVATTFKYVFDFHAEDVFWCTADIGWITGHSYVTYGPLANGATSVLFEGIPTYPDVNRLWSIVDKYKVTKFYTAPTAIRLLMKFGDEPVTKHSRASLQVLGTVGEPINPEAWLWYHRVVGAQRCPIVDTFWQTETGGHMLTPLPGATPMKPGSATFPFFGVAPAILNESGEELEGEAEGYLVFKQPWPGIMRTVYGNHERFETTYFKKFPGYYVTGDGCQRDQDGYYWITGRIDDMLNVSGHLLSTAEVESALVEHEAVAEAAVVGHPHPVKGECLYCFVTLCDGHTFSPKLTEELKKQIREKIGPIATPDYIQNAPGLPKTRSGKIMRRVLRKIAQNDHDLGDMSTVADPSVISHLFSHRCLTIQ

`COC(=O)c1cccc(N2N=C(C)C(C(=O)Nc3cccc(C(C)(F)F)c3)C2=O)c1` (stereo not shown) [compound 261, methyl 3-(4-((3-(1,1-difluoroethyl)phenyl)carbamoyl)-3-methyl-5-oxo-4,5-dihydro-1H-pyrazol-1-yl)benzoate] showed a Kd (ACSS2 [1]; Buffer A (no ATP, no CoA)) of 0.46 ± 0.21 µM, a Kd (ACSS2 [1]; Buffer B (+ATP), 0.3 mM ATP) of 0.03 ± 0.01 µM and a Kd (ACSS2 [1]; Buffer C (+ATP, +CoA), 0.3 mM ATP, 0.01 mM CoA) of 0.04 ± 0.02 µM. The Kd (ACSS2 [1]; Buffer D (+CoA), 0.01 mM CoA) was 0.61 ± 0.17 µM, the “reduction of binding Kd when ATP was added to the buffer” value (ACSS2 [1]; Label Free MST) was 10 fold and the IC50 (AACS) was 24000 nM. The IC50 (ACSS2 [2]) was under 1 nM, the IC50 (ACSL5) was over 100000 nM and the “thermal shift in the melting temperature of ACSS2” value (ACSS2 [3]; 0.03 mg/ml ACSS2, compound at different concentrations) was “dose-dependent thermal shift in the melting temperature of ACSS2”. The “thermal shift in the presence of ATP or ATP and CoA versus buffer alone” value (ACSS2 [3]; 0.3 mM ATP, 0.3 mM ATP + 0.01 mM CoA) was “higher in the presence of ATP or ATP and CoA”.
